Patent publication EP4813993A1, “COMPOUND, PREPARATION METHOD THEREFOR, AND USE THEREOF” (Sichuan Kelun Pharmaceutical Research Institute Co., Ltd., priority 2023, dated 2025)

Experiments:
[1] = biological target: T1, Nav1.8 channels (Homo sapiens, UniProt Q9Y5Y9); test: Manual patch-clamp, current of stably overexpressed Nav1.8 channels (resting state voltage program); type: cell-based
T1 construct: expressed in transfected cells
Method in brief: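 Whole-cell manual patch clamp on cells stably overexpressing Nav1.8, held at -120 mV and stepped to 0 mV for 50 ms every 20 s (resting-state protocol). Compounds were perfused in ascending concentrations, each for 5 min or until stable; block of peak current was calculated at steady state.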

[2] = Pharmacokinetic study in ICR mice; type: in vivo; conditions: mouse
Description: Experimental Example 3: Pharmacokinetic study of compounds in ICR mice
Experimental animals: ICR mice, male, 6-8 weeks old.
(§1) Compound preparation: 5% (final preparation volume) of DMSO was added to dissolve the test compound, and then 10% (final preparation volume) of Cremophor EL and 85% Saline were sequentially added.
The injection group was given free access to food and water. The oral group was fasted overnight (> 12 h) with free access to water, and was fed 4 h after administration. Blood samples were collected from the jugular vein of ICR mice at the following time points: 5 min, 15 min, 0.5 h, 1 h, 2 h, 4 h, 8 h, and 24 h after injection administration; 15 min, 0.5 h, 1 h, 2 h, 4 h, 6 h, 8 h, and 24 h after oral administration. The collected blood samples were anticoagulated, placed in an ice bath, and then centrifuged for 5 min to separate plasma. The plasma was stored at -70 °C for analysis.
Sample test: The concentrations of the designated compound drugs in plasma were determined by the LC-MS/MS method; the main pharmacokinetic parameters were calculated using the Winnolin 8.3 non-compartmental model. Pharmacokinetic test results of some compounds of the present disclosure in ICR mice

[3] = tested on: incision pain model; test: Incision pain model in ICR mice, Von Frey test; type: in vivo; conditions: Mean + SEM, n = 10; for PWT 50% value (g) Post-surgery, Preadministration / PWT 50% value (g) Pre-surgery: 50 mg/kg group; for PWT 50% value (g) Post-surgery, Preadministration: baseline before administration; for PWT 50% value (g) Pre-surgery: baseline before surgery; for PWT 50% value (g) 0.5 h / PWT 50% value (g) 2 h / PWT 50% value (g) 4 h: 50 mg/kg single dose; for PWT 50% value (g) 0.5 h: 0.5 h after administration; for PWT 50% value (g) 2 h: 2 h after administration; for PWT 50% value (g) 4 h: 4 h after administration
Description: Experimental Example 6: Pharmacodynamic effect study of compounds in incision pain model in ICR mice Experimental animals: ICR mice, male, 28-35 g.
as §1
A plantar incision pain model was established in mice via surgery before the administration and test. Mice were placed in an anesthesia induction chamber and given 3%-4% isoflurane for anesthesia induction. After the anesthesia induction, a breathing mask was applied, and the isoflurane concentration was adjusted to 1%-2% to prevent the mice from suffering pain during the surgery. Each mouse was placed in a supine position, and the surgical site was disinfected with alcohol and iodophor. Under sterile conditions, a 0.5 cm longitudinal incision was made on the left hind paw surface, 0.2 cm away from the heel, extending toward the toes. The skin and fascia were incised; the plantar muscle was separated, slightly lifted, and longitudinally incised. The skin was then sutured with 5-0 sutures and disinfected.
2. Administration and test
The Von Frey test was performed once before the surgery. On the second day after animal modeling, the test was repeated, and animals meeting the baseline requirements were selected for enrollment. The animals were randomly grouped based on the 50% PWT values, with 10 animals per group. Administration was performed under a double-blind test protocol. The 50% PWT of the animals was measured separately before administration (baseline) and at 0.5 h, 2 h, and 4 h after administration, and a single dose was administered. The model control group was given normal saline, while the compound groups were given the compounds according to the administration doses in the table below.

[4] = tested on: incision pain model; test: Incision pain model in ICR mice, Von Frey test; type: in vivo; conditions: 50 mg/kg single dose, Mean + SEM, n = 10

T1 sequence (Q9Y5Y9 whole entry): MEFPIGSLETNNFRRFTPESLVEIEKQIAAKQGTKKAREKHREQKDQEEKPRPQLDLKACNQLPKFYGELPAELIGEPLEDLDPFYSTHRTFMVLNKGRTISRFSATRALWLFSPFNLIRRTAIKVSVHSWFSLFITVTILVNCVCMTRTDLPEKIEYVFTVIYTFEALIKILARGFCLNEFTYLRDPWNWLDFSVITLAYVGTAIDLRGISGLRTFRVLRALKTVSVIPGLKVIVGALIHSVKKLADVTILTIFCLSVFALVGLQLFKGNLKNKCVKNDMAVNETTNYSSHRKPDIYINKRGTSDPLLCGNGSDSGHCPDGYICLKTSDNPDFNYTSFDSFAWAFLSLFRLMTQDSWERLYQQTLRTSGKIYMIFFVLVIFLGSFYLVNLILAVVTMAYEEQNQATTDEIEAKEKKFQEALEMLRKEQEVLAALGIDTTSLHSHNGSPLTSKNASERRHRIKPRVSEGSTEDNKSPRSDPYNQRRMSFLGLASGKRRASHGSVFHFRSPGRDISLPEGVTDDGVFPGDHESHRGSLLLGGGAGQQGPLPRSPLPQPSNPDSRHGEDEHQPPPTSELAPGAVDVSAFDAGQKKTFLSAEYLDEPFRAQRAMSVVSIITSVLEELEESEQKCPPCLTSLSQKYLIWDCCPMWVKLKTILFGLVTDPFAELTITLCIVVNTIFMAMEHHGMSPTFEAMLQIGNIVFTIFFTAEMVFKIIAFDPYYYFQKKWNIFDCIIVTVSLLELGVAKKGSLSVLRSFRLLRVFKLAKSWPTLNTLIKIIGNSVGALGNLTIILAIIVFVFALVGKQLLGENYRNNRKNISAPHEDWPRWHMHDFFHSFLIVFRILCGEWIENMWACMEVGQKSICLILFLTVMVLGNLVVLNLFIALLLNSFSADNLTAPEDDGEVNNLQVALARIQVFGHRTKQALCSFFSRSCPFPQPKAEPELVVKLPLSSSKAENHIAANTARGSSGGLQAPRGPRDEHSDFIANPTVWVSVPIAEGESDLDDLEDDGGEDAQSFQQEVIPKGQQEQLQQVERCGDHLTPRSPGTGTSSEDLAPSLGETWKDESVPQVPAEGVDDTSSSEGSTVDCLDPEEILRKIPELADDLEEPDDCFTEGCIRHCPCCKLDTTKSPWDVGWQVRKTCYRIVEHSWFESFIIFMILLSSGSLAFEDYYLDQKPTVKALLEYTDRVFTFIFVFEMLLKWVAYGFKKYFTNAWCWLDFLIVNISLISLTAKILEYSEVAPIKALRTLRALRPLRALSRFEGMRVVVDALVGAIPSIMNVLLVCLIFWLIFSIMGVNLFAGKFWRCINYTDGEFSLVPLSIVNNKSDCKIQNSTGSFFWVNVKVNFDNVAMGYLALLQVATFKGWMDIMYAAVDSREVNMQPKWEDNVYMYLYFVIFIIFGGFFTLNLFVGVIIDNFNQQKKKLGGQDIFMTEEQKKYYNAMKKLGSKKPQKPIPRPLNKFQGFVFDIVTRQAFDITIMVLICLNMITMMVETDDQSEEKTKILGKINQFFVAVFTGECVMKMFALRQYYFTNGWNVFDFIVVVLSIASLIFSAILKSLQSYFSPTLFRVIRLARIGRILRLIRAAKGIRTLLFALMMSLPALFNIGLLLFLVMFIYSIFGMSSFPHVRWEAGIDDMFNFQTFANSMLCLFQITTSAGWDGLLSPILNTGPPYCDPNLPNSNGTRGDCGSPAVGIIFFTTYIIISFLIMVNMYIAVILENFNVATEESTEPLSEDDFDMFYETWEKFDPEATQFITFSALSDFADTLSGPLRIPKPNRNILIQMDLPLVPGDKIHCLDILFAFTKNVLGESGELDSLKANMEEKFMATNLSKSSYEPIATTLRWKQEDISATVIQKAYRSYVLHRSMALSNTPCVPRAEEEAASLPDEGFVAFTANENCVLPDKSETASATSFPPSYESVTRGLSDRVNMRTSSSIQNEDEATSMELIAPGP

SMILES | inhibition at 0.001 µM ([1]; concentration of 1 nM, read-out: Inhibition rate %) [%] | AUC(0-inf) ([2]; male, plasma, Oral administration, 10 mg/kg) [ng·h/mL] | AUC(0-inf) ([2]; male, plasma, iv, Injection (i.v.), 2 mg/kg) [ng·h/mL] | PWT 50% value (g) Post-surgery, Preadministration [3] [g] | PWT 50% value (g) Pre-surgery [3] [g] | PWT 50% value (g) 0.5 h [3] [g] | PWT 50% value (g) 2 h [3] [g] | PWT 50% value (g) 4 h [3] [g] | PWT 50% value (g) AUC0-8h [4] [g·h] | AUC(0-inf) ([2]; in vivo, Oral administration, 10 mg/kg) [ng·h/mL] | AUC(0-inf) ([2]; in vivo, iv, Injection (i.v.), 2 mg/kg) [ng·h/mL] | IC50 [1] [nM]
COc1c([C@@H]2C[C@](C)(C(F)(F)F)S[C@H]2C(=O)Nc2ccn3nncc3c2)ccc(F)c1F [Compound 246-A, (2R,3S,5R)-3-(3,4-difluoro-2-methoxyphenyl)-5-methyl-N-((1,2,3)triazolo(1,5-a)pyridin-5-yl)-5-(trifluoromethyl)tetrahydrothiophene-2-carboxamide] | 77.8 | 2580 | 1400 | 0.24 ± 0.03 | 1.4 ± 0.17 | 0.32 ± 0.12 | 0.33 ± 0.16 | 0.4 ± 0.27 | 2.53 ± 0.82 |  |  | 
COc1c([C@@H]2C[C@](C)(C(F)(F)F)S[C@H]2C(=O)Nc2ccc3c(c2)S(=O)(=O)NC3)ccc(F)c1F [Compound a-37-A, (2R,3S,5R)-3-(3,4-difluoro-2-methoxyphenyl)-N-(1,1-dioxide-2,3-dihydrobenzo[d]isothiazol-6-yl)-5-methyl-5-(trifluoromethyl)tetrahydrothiophene-2-carboxamide] |  |  |  | 0.24 ± 0.03 | 1.43 ± 0.33 | 0.33 ± 0.12 | 0.55 ± 0.18 | 0.32 ± 0.1 | 2.71 ± 0.39 | 8130 | 2030 | 
COc1c([C@@H]2C[C@](C)(C(F)(F)F)S[C@H]2C(=O)Nc2cccc(S(=O)(=O)N=[N+]=[N-])c2)ccc(F)c1F [a-65-A, 3-((2R,3S,5R)-3-(3,4-difluoro-2-methoxyphenyl)-5-methyl-5-(trifluoromethyl)tetrahydrothiophene-2-carboxamido)benzenesulfonyl azide] |  |  |  | 0.22 ± 0.02 | 1.13 ± 0.08 | 0.38 ± 0.16 | 0.43 ± 0.17 | 0.51 ± 0.2 | 4.87 ± 0.97 |  |  | 0.017
COc1c([C@@H]2C[C@](C)(C(F)(F)F)S[C@H]2C(=O)Nc2ccnc(NC#N)c2)ccc(F)c1F [a-34-A, (2R,3S,5R)-N-(2-cyanoaminopyridin-4-yl)-3-(3,4-difluoro-2-methoxyphenyl)-5-methyl-5-(trifluoromethyl)tetrahydrothiophene-2-carboxamide] |  |  |  | 0.24 ± 0.03 | 1.41 ± 0.33 | 0.32 ± 0.15 | 0.51 ± 0.15 | 0.35 ± 0.16 | 2.81 ± 0.57 |  |  | 0.04
